Assay results taken from paper PMC7477548, “Prediction of an MMP-1 inhibitor activity cliff using the SAR matrix approach and its experimental validation” (Scientific Reports, 2020).

Assays:
[1] = target: T1, MMP-1 (Homo sapiens, UniProt P03956); assay: MMP-1 inhibitory colorimetric assay (MMP1 Inhibitor Screening Assay Kit ab139443); type: biochemical; conditions: for IC50: colorimetric assay, A412nm, mean ± standard deviation of triplicated samples; for inhibitory activity against MMP-1 in words: at a 100 µM concentration
T1 construct: purchased abcam ab139443
T1 sequence (P03956 100-269 limits assumed): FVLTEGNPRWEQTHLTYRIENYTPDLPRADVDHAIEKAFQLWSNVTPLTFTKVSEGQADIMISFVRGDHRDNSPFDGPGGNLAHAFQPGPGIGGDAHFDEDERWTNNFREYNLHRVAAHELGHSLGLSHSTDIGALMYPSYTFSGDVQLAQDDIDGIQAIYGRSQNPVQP
Experimental: We next examined the inhibitory activity of the synthesized compounds 3–6 against MMP-1 using a colorimetric assay. This assay was performed using the MMP-1 Inhibitor Screening Assay Kit (ab139443) according to the manufacturer’s protocols. The reaction was started by the addition of the diluted MMP-1 substrate. The continuous absorbance of the wells was measured at A412nm using a microplate reader.
MMP-1 inhibitory assay was performed using the assay kit according to the manufacturer’s protocol. A 96-well clear microplate (1/2 volume), 30.6 U/µL of MMP-1 enzyme, MMP-1 substrate (25 mM in DMSO), and colorimetric assay buffer were contained in MMP1 Inhibitor Screening Assay Kit (ab139443, abcam). 2-[(2-Methylpropyl)[(4-methoxyphenyl)sulfonyl]amino]acetohydroximic acid (NNGH) was used as a positive control of an MMP-1 inhibitor. The MMP-1 substrate and DMSO solution of compound were thawed at room temperature. A compound (10 mM in DMSO) was diluted at 1/200 in assay buffer and brought to 37 °C. Also, the MMP-1 substrate was diluted at 1/200 in assay buffer and brought to 37 °C. The MMP-1 enzyme was diluted at 1/25 in assay buffer and warmed up to 37 °C as soon as the assay was started. After the assay buffer was pipetted appropriately into each well, 20 µL of the prepared MMP-1 enzyme solution and the desired concentration of test inhibitor solutions (20 µL; final concentrations: 0.1–100 µM) were added to the wells. The microplate was incubated for 30 min at 37 °C. The 10 µL of the prepared MMP-1 substrate solution was added into each well to allow the reaction start. The absorbance of the wells was measured at A412nm using a microplate reader every 1 min, and data analysis was performed.

| SMILES | IC50 [1] | inhibitory activity against MMP-1 in words [1] | melting point | fold higher MMP-1 inhibitory activity (fold lower IC50) of compound 4 relative to compound 3 ([1]; ratio of IC50 values, compound 3 vs compound 4) |
| --- | --- | --- | --- | --- |
| C[C@H](C(=O)NO)N1CC[C@@](C)(c2cccc(C(F)(F)F)c2)C1=O [Compound 6, (R)-N-hydroxy-2-((S)-3-methyl-2-oxo-3-(3-(trifluoromethyl)phenyl)pyrrolidin-1-yl)propanamide] | 11.1 ± 0.5 µM | – | – | – |
| C[C@H](C(=O)NO)N1CC[C@](C)(c2ccc(-c3ccccc3)cc2)C1=O [3′, (R)-2-((R)-3-([1,1′-biphenyl]-4-yl)-3-methyl-2-oxopyrrolidin-1-yl)-N-hydroxypropanamide] | > 100 µM | did not display significant inhibitory activity | 137 to 138 °C | – |
| C[C@H](C(=O)NO)N1CC[C@@](C)(c2ccc(C(F)(F)F)cc2)C1=O [Compound 4, (R)-N-hydroxy-2-((S)-3-methyl-2-oxo-3-(4-(trifluoromethyl)phenyl)pyrrolidin-1-yl)propanamide] | 0.18 ± 0.03 µM | – | – | 60 fold |
| C[C@H](C(=O)NO)N1CC[C@@](C)(c2ccccc2)C1=O [Compound 5, (R)-N-hydroxy-2-((S)-3-methyl-2-oxo-3-phenylpyrrolidin-1-yl)propanamide] | 1.54 ± 0.08 µM | – | – | – |
| C[C@H](C(=O)NO)N1CC[C@@](C)(c2ccc(-c3ccccc3)cc2)C1=O [Compound 3, (R)-2-((S)-3-([1,1′-biphenyl]-4-yl)-3-methyl-2-oxopyrrolidin-1-yl)-N-hydroxypropanamide] | 11.5 ± 1.3 µM | – | 160 to 162 °C | – |
| C[C@H](C(=O)NO)N1CC[C@](C)(c2ccc(C(F)(F)F)cc2)C1=O [4′, (R)-N-hydroxy-2-((R)-3-methyl-2-oxo-3-(4-(trifluoromethyl)phenyl)pyrrolidin-1-yl)propanamide] | > 100 µM | did not display significant inhibitory activity | 105 to 107 °C | – |
